# pIC50: −log10 of the molar value. The source made the active and inactive calls. No cut-off for these calls is given here.
# Tests used:
# [1] = test system: CCRF-CEM; assay: Induction of apoptosis in human CEM cells assessed as increase in caspase-3 activity using Ac-DEVD-AMC as a substrate at 1 uM after 24 hrs by fluorescence microplate reader assay relative to untreated control; assay type: functional
# [2] = test system: CCRF-CEM; assay: Induction of apoptosis in human CEM cells assessed as increase in caspase-3 activity using Ac-DEVD-AMC as a substrate at 2 uM after 24 hrs by fluorescence microplate reader assay relative to untreated control; assay type: functional
# [3] = test system: CCRF-CEM; assay: Induction of apoptosis in human CEM cells assessed as increase in caspase-3 activity using Ac-DEVD-AMC as a substrate at 5 uM after 24 hrs by fluorescence microplate reader assay relative to untreated control; assay type: functional
# [4] = test system: CCRF-CEM; assay: Induction of apoptosis in human CEM cells assessed as cleavage of PARP at 1 to 5 uM after 24 hrs by Western blot analysis relative to untreated control; assay type: functional, cell-based
# [5] = test system: CCRF-CEM; assay: Induction of apoptosis in human CEM cells assessed as increase in Bcl-2 protein level after 24 hrs by Western blot analysis relative to untreated control; assay type: functional, cell-based
# [6] = test system: CCRF-CEM; assay: Induction of apoptosis in human CEM cells assessed as effect on […] protein expression at 1 to 5 uM after 24 hrs by Western blot analysis relative to untreated control; assay type: functional, cell-based
# [7] = test system: CCRF-CEM; assay: Induction of apoptosis in human CEM cells assessed as effect on retinoblastoma protein expression at 1 to 5 uM after 24 hrs by Western blot analysis relative to untreated control; assay type: functional, cell-based
# [8] = test system: CCRF-CEM; assay: Induction of apoptosis in human CEM cells assessed as accumulation of caspase-3 after 24 hrs by Western blot analysis relative to untreated control; assay type: functional, cell-based
# [9] = test system: CCRF-CEM; assay: Induction of apoptosis in human CEM cells assessed as increase in caspase-7 activity using Ac-DEVD-AMC as a substrate at 1 uM after 24 hrs by fluorescence microplate reader assay relative to untreated control; assay type: functional
# [10] = test system: CCRF-CEM; assay: Induction of apoptosis in human CEM cells assessed as increase in caspase-7 activity using Ac-DEVD-AMC as a substrate at 2 uM after 24 hrs by fluorescence microplate reader assay relative to untreated control; assay type: functional
# [11] = test system: CCRF-CEM; assay: Induction of apoptosis in human CEM cells assessed as increase in caspase-7 activity using Ac-DEVD-AMC as a substrate at 5 uM after 24 hrs by fluorescence microplate reader assay relative to untreated control; assay type: functional
# [12] = test system: CCRF-CEM; assay: Cytotoxicity against human CEM cells assessed as viable cells after 72 hrs by calcein AM assay; assay type: functional, cell-based
# [13] = test system: MCF7; assay: Cytotoxicity against human MCF7 cells assessed as viable cells after 72 hrs by calcein AM assay; assay type: functional, cell-based; conditions: MCF7, 72 h
# [14] = test system: G-361; assay: Cytotoxicity against human G361 cells assessed as viable cells after 72 hrs by calcein AM assay; assay type: functional, cell-based; conditions: G-361, 72 h
# [15] = test system: HeLa; assay: Cytotoxicity against human HeLa cells assessed as viable cells after 72 hrs by calcein AM assay; assay type: functional, cell-based
# [16] = test system: HOS; assay: Cytotoxicity against human HOS cells assessed as viable cells after 72 hrs by calcein AM assay; assay type: functional, cell-based
# [17] = test system: A549; assay: Cytotoxicity against human A549 cells assessed as viable cells after 72 hrs by calcein AM assay; assay type: functional, cell-based; conditions: A549, 72 h
# [18] = Cytotoxicity against human T98 cells assessed as viable cells after 72 hrs by calcein AM assay; assay type: functional, cell-based; conditions: T98, 72 h
# [19] = test system: HCT-116; assay: Cytotoxicity against human HCT116 assessed as viable cells after 72 hrs by calcein AM assay; assay type: functional, cell-based; conditions: HCT-116, 72 h
# [20] = test system: BJ; assay: Cytotoxicity against human BJ cells assessed as viable cells after 72 hrs by calcein AM assay; assay type: cell-based
# [21] = test system: CCRF-CEM; assay: Induction of cell cycle arrest in human CEM cells assessed as increase in accumulation of cells at S-phase after 24 hrs by flow cytometric analysis relative to untreated control; assay type: functional, cell-based
# [22] = test system: CCRF-CEM; assay: Induction of cell cycle arrest in human CEM cells assessed as increase in accumulation of cells at G2/M-phase after 24 hrs by flow cytometric analysis relative to untreated control; assay type: functional, cell-based
# [23] = test system: CCRF-CEM; assay: Induction of cell cycle arrest in human CEM cells assessed as reduction in accumulation of cells at G0/G1-phase after 24 hrs by flow cytometric analysis relative to untreated control; assay type: functional, cell-based
# [24] = test system: CCRF-CEM; assay: Induction of apoptosis in human CEM cells assessed as increase in amount of DNA at subG1-phase after 24 hrs by flow cytometric analysis relative to untreated control; assay type: functional, cell-based
# [25] = test system: CCRF-CEM; assay: Induction of apoptosis in human CEM cells assessed as increase in caspase-3 activity using Ac-DEVD-AMC as a substrate at 0.25 uM after 24 hrs by fluorescence microplate reader assay relative to untreated control; assay type: functional
# [26] = test system: CCRF-CEM; assay: Induction of apoptosis in human CEM cells assessed as increase in caspase-3 activity using Ac-DEVD-AMC as a substrate at 0.5 uM after 24 hrs by fluorescence microplate reader assay relative to untreated control; assay type: functional
# [27] = test system: CCRF-CEM; assay: Induction of apoptosis in human CEM cells assessed as cleavage of PARP at 0.1 to 0.5 uM after 24 hrs by Western blot analysis relative to untreated control; assay type: functional, cell-based
# [28] = test system: CCRF-CEM; assay: Induction of apoptosis in human CEM cells assessed as effect on […] protein expression at 0.1 to 0.5 uM after 24 hrs by Western blot analysis relative to untreated control; assay type: functional, cell-based
# [29] = test system: CCRF-CEM; assay: Induction of apoptosis in human CEM cells assessed as effect on retinoblastoma protein expression at 0.1 to 0.5 uM after 24 hrs by Western blot analysis relative to untreated control; assay type: functional, cell-based
# [30] = test system: CCRF-CEM; assay: Induction of apoptosis in human CEM cells assessed as increase in caspase-7 activity using Ac-DEVD-AMC as a substrate at 0.25 uM after 24 hrs by fluorescence microplate reader assay relative to untreated control; assay type: functional
# [31] = test system: CCRF-CEM; assay: Induction of apoptosis in human CEM cells assessed as increase in caspase-7 activity using Ac-DEVD-AMC as a substrate at 0.5 uM after 24 hrs by fluorescence microplate reader assay relative to untreated control; assay type: functional
# [32] = test system: CCRF-CEM; assay: Induction of apoptosis in human CEM cells assessed as cleavage of PARP at 5 to 10 uM after 24 hrs by Western blot analysis relative to untreated control; assay type: functional, cell-based
# [33] = test system: CCRF-CEM; assay: Induction of apoptosis in human CEM cells assessed as effect on […] protein expression at 5 to 10 uM after 24 hrs by Western blot analysis relative to untreated control; assay type: functional, cell-based
# [34] = test system: CCRF-CEM; assay: Induction of apoptosis in human CEM cells assessed as effect on retinoblastoma protein expression at 5 to 10 uM after 24 hrs by Western blot analysis relative to untreated control; assay type: functional, cell-based
# [35] = test system: CCRF-CEM; assay: Induction of apoptosis in human CEM cells assessed as increase in caspase-7 activity using Ac-DEVD-AMC as a substrate at 7.5 uM after 24 hrs by fluorescence microplate reader assay relative to untreated control; assay type: functional
# [36] = test system: CCRF-CEM; assay: Induction of apoptosis in human CEM cells assessed as increase in caspase-7 activity using Ac-DEVD-AMC as a substrate at 10 uM after 24 hrs by fluorescence microplate reader assay relative to untreated control; assay type: functional
# [37] = test system: CCRF-CEM; assay: Induction of apoptosis in human CEM cells assessed as increase in caspase-3 activity using Ac-DEVD-AMC as a substrate at 7.5 uM after 24 hrs by fluorescence microplate reader assay relative to untreated control; assay type: functional
# [38] = test system: CCRF-CEM; assay: Induction of apoptosis in human CEM cells assessed as increase in caspase-3 activity using Ac-DEVD-AMC as a substrate at 10 uM after 24 hrs by fluorescence microplate reader assay relative to untreated control; assay type: functional
SMILES,Activity [5],Activity [8],pIC50 [12],pIC50 [13],pIC50 [14],pIC50 [15],pIC50 [16],pIC50 [17],pIC50 [18],pIC50 [19],pIC50 [20],Activity [21],Activity [22],Activity [23],Activity [24],other results
COc1ccc(C(=O)OC[C@@H](C)[C@@]2(O)[C@@H](O[C@@H]3OC[C@H](O)[C@H](O[C@@H]4OC[C@@H](O)[C@H](O)[C@H]4OC(=O)c4ccc(OC)cc4)[C@H]3OC(C)=O)C[C@H]3[C@@H]4CC=C5C[C@@H](O)CC[C@]5(C)[C@H]4CC[C@@]32C)cc1,Dose-dependent effect,Dose-dependent effect,7.24,6.39,6.77,6.47,5.27,6.24,7.26,5.30,7.41,Dose-dependent effect,Dose-dependent effect,Dose-dependent effect,Active,fold change (FC) [1]: 2.1; fold change (FC) [2]: 1.7; fold change (FC) [3]: 1.8; Activity [4]: Active; Activity [6]: inactive; Activity [7]: inactive; fold change (FC) [9]: 2.1; fold change (FC) [10]: 1.7; fold change (FC) [11]: 1.8
C=CCCCCCCCCC(=O)OC[C@@H](C)[C@@]1(O)[C@@H](O[C@@H]2OC[C@H](O)[C@H](O[C@@H]3OC[C@@H](O)[C@H](O)[C@H]3OC(=O)c3ccc(OC)cc3)[C@H]2OC(C)=O)C[C@H]2[C@@H]3CC=C4C[C@@H](O)CC[C@]4(C)[C@H]3CC[C@@]21C,–,Dose-dependent effect,8.21,7.54,8.17,6.99,5.71,6.22,8.15,5.59,8.52,Dose-dependent effect,Dose-dependent effect,Dose-dependent effect,–,fold change (FC) [25]: 2.5; fold change (FC) [26]: 2.5; Activity [27]: Active; Activity [28]: inactive; Activity [29]: inactive; fold change (FC) [30]: 2.5; fold change (FC) [31]: 2.5
C/C=C/C(=O)OC[C@@H](C)[C@@]1(O)[C@@H](O[C@@H]2OC[C@H](O)[C@H](O[C@@H]3OC[C@@H](O)[C@H](O)[C@H]3OC(=O)c3ccc(OC)cc3)[C@H]2OC(C)=O)C[C@H]2[C@@H]3CC=C4C[C@@H](O)CC[C@]4(C)[C@H]3CC[C@@]21C,Dose-dependent effect,Dose-dependent effect,6.47,6.08,6.05,5.71,< 4.30,6.26,6.03,< 4.30,6.64,Dose-dependent effect,Dose-dependent effect,Dose-dependent effect,Active,Activity [32]: Active; Activity [33]: inactive; Activity [34]: inactive; fold change (FC) [35]: 3; fold change (FC) [36]: 3; fold change (FC) [37]: 3; fold change (FC) [38]: 3
CCCCCCCCCCCC(=O)OC[C@@H](C)[C@@]1(O)[C@@H](O[C@@H]2OC[C@H](O)[C@H](O[C@@H]3OC[C@@H](O)[C@H](O)[C@H]3OC(=O)c3ccc(OC)cc3)[C@H]2OC(C)=O)C[C@H]2[C@@H]3CC=C4C[C@@H](O)CC[C@]4(C)[C@H]3CC[C@@]21C,–,–,8.20,7.68,8.10,7.38,5.72,6.03,8.15,5.55,8.30,–,–,–,–,–
C=CCCCCC(=O)OC[C@@H](C)[C@@]1(O)[C@@H](O[C@@H]2OC[C@H](O)[C@H](O[C@@H]3OC[C@@H](O)[C@H](O)[C@H]3OC(=O)c3ccc(OC)cc3)[C@H]2OC(C)=O)C[C@H]2[C@@H]3CC=C4C[C@@H](O)CC[C@]4(C)[C@H]3CC[C@@]21C,–,–,7.68,7.27,7.36,7.21,5.19,6.08,7.37,4.96,7.70,–,–,–,–,–
CC(C)CCC(=O)[C@@H](C)[C@@]1(O)[C@@H](O)C[C@H]2[C@@H]3CC=C4C[C@@H](O)CC[C@]4(C)[C@H]3CC[C@@]21C,–,–,< 4.30,< 4.30,< 4.30,< 4.30,< 4.30,< 4.30,< 4.30,< 4.30,< 4.30,–,–,–,–,–

# From ChEMBL document CHEMBL1773000, “Synthesis and biological activity of 22-deoxo-23-oxa analogues of saponin OSW-1” (J Med Chem, 2011)
